In assay [1] the test system is tetrabenazine-induced depression. Description: prevention of tetrabenazine-induced sedation and depression in mice (exploratory activity and ptosis). It is filed as in vivo, Carworth CF1 S female mice. The conditions noted are these: for ED50: Mus musculus, po; for ED50 Ptosis / ED50 Exploratory: 60 min. From the text: A standard procedure for detecting and comparing the antidepressant activity of compounds in this series for which there is good correlation with human efficacy is the prevention of tetrabenazine-induced sedation and depression in mice. (Everett, "The Dopa Response Potentiation Test and Its Use in Screening for Antidepressant Drugs", pp. 164-167 in "Antidepressant Drugs" [Proceedings of the First International Symposium], S. Garattini and M. N. G. Dukes, eds., 1967.).
Groups of 10 Carworth CF1 S female mice, 18-21 g. each, were fasted 1.5 hours and were intubated with antagonist compounds at oral doses of 0, 5, 25, and 125 mg/kg or 0, 1, 3, 9, 27, and 81 mg/kg in 0.20 ml. of 1% Methocel (methylcellulose) 1.25% Tween 80. The mice were challenged 30 minutes later with tetrabenazine (as the methane-sulfonate), 32 mg/kg intraperitoneally (dissolved in 0.20 ml. 0.05M KCl at pH 2.0). One hour after antagonist (30 minutes after tetrabenazine), the mice were examined for signs of exploratory activity and ptosis (eyelid closure). Normal exploratory activity (relief from sedation) was recorded when a mouse lifted by the tail from a group of 10 in a testing box and placed on a stainless steel testing box lid (12.5" × 8" with 0.33" mesh) either turned its head horizontally 30° in both direction or moved to the edge of the screen within 10 seconds after being placed on the screen. Relief from ptosis was recorded when exactly 2 seconds after placing the mouse facing the observer, lid closure was less than 50% in both eyes.
For comparison, the marketed antidepressant Amitriptyline was also tested, and an ED50 (effective dose in 50% of the cases) was determined. The lower the ED50, the better the antidepressant.

The subject of a further assay is monoamine oxidase (MAO). Description: tryptamine potentiation in mice (monoamine oxidase inhibition). It is filed as in vivo. The source says:
(§1) An antidepressant which acts by inhibiting MAO is not acceptable.

Assay [2] deals with hexabarbitol potentiation. The assay can be described thus: hexabarbitol potentiation in mice (sedative qualities). It is filed as in vivo.
Text: as §1

[3] abbreviates: Table I, orally, 1 hour post-drug, tetrabenazine 32 mg/kg i.p. 30 min after drug, relief from ptosis.
[4] abbreviates: Table I, orally, 1 hour post-drug, tetrabenazine 32 mg/kg i.p. 30 min after drug, relief from sedation (exploratory activity).
Where [5] appears, read: Table II (formula II compounds), orally, 1 hour post-drug, relief from ptosis, read-out: ED50 Ptosis.
Setting [6] is: Table II (formula II compounds), orally, 1 hour post-drug, relief from sedation (exploratory activity), read-out: ED50 Exploratory.

Where a name gives a salt, the structure may show the parent alone. Read-outs that look alike come from different tables or passages of the source.

As for `CN(C)CCC=C1c2ccccc2CCc2ccccc21` [Amitriptylene . HCl, reference compound], the ED50 in assay [1] (Table I, orally, 1 hour post-drug, tetrabenazine 32 mg/kg i.p. 30 min after drug, relief from ptosis, read-out: ED50 Ptosis) amounted to 1.5 mg/kg; in assay [1] (Table I, orally, 1 hour post-drug, tetrabenazine 32 mg/kg i.p. 30 min after drug, relief from sedation (exploratory activity), read-out: ED50 Exploratory), 3.7 mg/kg.

`CN(C)CCCOC12c3ccccc3C3C(c4ccccc41)N32` (stereo not drawn) [CH2 CH2 CH2 N(CH3)2, 3-[(4b, 4c-Dihydro-8bH-azirino[2,1,3-cd]dibenzo[a,f]-pyrrolizin-8b-yl)oxy]propyl-N,N-dimethylamine]: the ED50 in assay [1] (1 h, read-out: ED50 Exploratory, Table I, orally, 1 hour post-drug, tetrabenazine 32 mg/kg i.p. 30 min after drug, relief from sedation (exploratory activity)) was determined as 67 mg/kg; in assay [1] (1 h, read-out: ED50 Ptosis, Table I, orally, 1 hour post-drug, tetrabenazine 32 mg/kg i.p. 30 min after drug, relief from ptosis) it was 56 mg/kg.

As to `CN(C)CCOC12c3ccccc3C3C(c4ccccc41)N32` (stereo not drawn) [CH2 CH2 N(CH3)2 . Maleate, 2-[4b, 4c-Dihydro-8bH-azirino[2,1,3-cd]dibenzo[a,f]pyrrolizin-8b-yl)oxy]ethyl-N,N-dimethylamine Maleate], the “ED50 Ptosis” value in assay [1] (setting [3]) was determined as 8 mg/kg. For the same molecule, the “ED50 Exploratory” value in assay [1] (setting [4]) came out at 9 mg/kg.

`CN(C)CCOC12NC(c3ccccc31)C(Cl)c1ccccc12` (stereo not drawn) [CH2 CH2 N(CH3)2 H Cl, 10,11-Dihydro-5,10-imino-5-[2-(N,N-dimethylamino)-ethoxy]-11-chloro-5H-dibenzo[a,d]cycloheptene]: the ED50 in assay [1] (setting [5]) is 15 mg/kg; in assay [1] (setting [6]), 25 mg/kg.

For `CN(C)CCOC12NC(Cc3ccccc31)c1ccccc12` (stereo not drawn) [CH2 CH2 N(CH3)2 H H, 10,11-Dihydro-5,10-imino-5-[2-(N,N-dimethylamino)-ethoxy]-5H-dibenzo[a,d]cycloheptene], the ED50 in assay [1] (setting [5]) and in assay [1] (setting [6]) was 15 mg/kg throughout.

For the molecule `CN(C)CCOC12c3ccccc3C3C(c4ccccc41)N32` (stereo not drawn) [CH2 CH2 N(CH3)2, 2-[(4b, 4c-Dihydro-8bH-azirino[2,1,3-cd]dibenzo[a,f]pyrrolizin-8b-yl)oxy]ethyl-N,N-dimethylamine], the “ED50 Ptosis” value in assay [1] (setting [3]) amounted to 2 mg/kg. Besides, the “ED50 Exploratory” value in assay [1] (setting [4]) is given as 2 mg/kg. Besides, the “monoamine oxidase (MAO) inhibition” value in the assay on monoamine oxidase (MAO) (implied by lack of tryptamine potentiation in mice) is on record as “not a monoamine oxidase (MAO) inhibitor”. Further, the potentiation of tryptamine result in the assay with monoamine oxidase (MAO) (in mice) is reported as “not to potentiate tryptamine in mice”. The sedative qualities entry in assay [2] (implied by hexabarbitol potentiation in mice, at high doses) was “sedative qualities at high doses”. Besides, the potentiation of hexabarbitol result in assay [2] (in mice) is on record as “potentiates hexabarbitol in mice”.

As to `NCCOC12c3ccccc3C3C(c4ccccc41)N32` (stereo not drawn) [CH2 CH2 NH2 . Maleate], in assay [1] (setting [3]), the “ED50 Ptosis” value turned out to be 10.3 mg/kg. The “ED50 Exploratory” value in assay [1] (setting [4]) was found to be 11.8 mg/kg.

On to `NCCOC12c3ccccc3C3C(c4ccccc41)N32` (stereo not drawn) [CH2 CH2 NH2 . Tartate], for which, in assay [1] (setting [3]), the “ED50 Ptosis” value came out at 2.7 mg/kg. The “ED50 Exploratory” value in assay [1] (setting [4]) is 3.3 mg/kg.

Turning to `NCCOC12NC(c3ccccc31)C(Cl)c1ccccc12` (stereo not drawn) [CH2 CH2 NH2 H Cl, 10,11-Dihydro-5,10-imino-5-(2-aminoethoxy)-11-chloro-5H-dibenzo[a,d]cycloheptene], the ED50 in assay [1] (setting [5]) and in assay [1] (setting [6]) was 37 mg/kg in each case.

For `NCCOC12c3ccccc3C3C(c4ccccc41)N32` (stereo not drawn) [CH2 CH2 NH2], the “ED50 Ptosis” value in assay [1] (setting [3]) stood at 1 mg/kg. Besides, the “ED50 Exploratory” value in assay [1] (setting [4]) came to 2 mg/kg.

The values are drawn from patent US4123546A, “Antidepressant compounds” (E. I. Du Pont de Nemours and Company, priority 1977, dated 1978).
